This passage reports IC50 results from patent US20260217735A1, “HETEROCYCLES AND USES THEREOF” (Kumquat Biosciences Inc., priority 2023, published 2026).

Some results are limits rather than exact numbers.

Broadly, the IC50 is the midpoint of a concentration-inhibition curve.

Assay [1] has as its target T1, KRAS G12D (Homo sapiens, UniProt P01116, G12D).
T1 construct: made in house; host or cells: E. coli, e.g. BL21 (DE3)
Description: HTRF assay, KRAS G12D interaction with SOS1. Format: biochemical. The note with it: bins <500 nM / 500 nM to 1000 nM, read-out: Inhibition of KRAS G12D (IC50). For orientation: Time-resolved FRET reads energy transfer from a long-lived donor to a nearby acceptor.

The target in assay [2] is T2, KRAS G12S (Homo sapiens, UniProt P01116, G12S).
T2 construct: made in house; host or cells: E. coli, e.g. BL21 (DE3)
Description: HTRF assay, KRAS G12S interaction with SOS1. To be noted: bins <500 nM / 500 nM to 1000 nM, read-out: Inhibition of KRAS G12S (IC50). Format: biochemical.

The subject of assay [3] is MiaPaca2 cells. Description: Ras cellular assay, growth of cells with K-Ras G12C mutation. The format is cell-based. To be noted: Homo sapiens, MIA PaCa-2; cell proliferation assay; bins ≤500 nM / >500 nM; read-out: Inhibition of MiaPaca2 Cells (IC50). In short, it runs like this: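 Anchorage-independent growth: G12C-mutant MIA PaCa-2 plated in soft agar, time-zero plate read the next day when compound was dosed (final DMSO 0.3%). After growth to day 10, MTS-type absorbance at 490/660 nm relative to time zero gave IC50 via four-parameter fitting.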

In assay [4] the target is T3, KRAS WT (Homo sapiens, UniProt P01116).
T3 construct: made in house; host or cells: E. coli, e.g. BL21 (DE3)
Description: HTRF assay, wildtype KRAS interaction with SOS1. The note with it: bins <500 nM / 500 nM to 1000 nM, read-out: Inhibition of KRAS WT (IC50). The format is biochemical.

The target of assay [5] is T4, KRAS G12V (Homo sapiens, UniProt P01116, G12V).
T4 construct: made in house; host or cells: E. coli, e.g. BL21 (DE3)
Description: HTRF assay, KRAS G12V interaction with SOS1. The format is biochemical. The note with it: bins <500 nM / 500 nM to 1000 nM, read-out: Inhibition of KRAS G12V (IC50).

T3 sequence (P01116 1-188 isoform P01116-2): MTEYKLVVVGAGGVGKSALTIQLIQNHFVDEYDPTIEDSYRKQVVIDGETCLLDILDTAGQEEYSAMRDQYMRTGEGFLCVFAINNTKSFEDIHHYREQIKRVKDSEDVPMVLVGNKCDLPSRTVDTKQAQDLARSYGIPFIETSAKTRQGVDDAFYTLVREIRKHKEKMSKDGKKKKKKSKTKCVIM
T2 sequence (P01116 1-188 isoform P01116-2 G12S): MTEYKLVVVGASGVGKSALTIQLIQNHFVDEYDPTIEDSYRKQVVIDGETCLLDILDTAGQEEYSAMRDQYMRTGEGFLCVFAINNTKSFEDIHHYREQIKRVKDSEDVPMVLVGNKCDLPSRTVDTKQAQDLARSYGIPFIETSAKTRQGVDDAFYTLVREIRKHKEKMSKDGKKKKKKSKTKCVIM
T4 sequence (P01116 1-188 isoform P01116-2 G12V): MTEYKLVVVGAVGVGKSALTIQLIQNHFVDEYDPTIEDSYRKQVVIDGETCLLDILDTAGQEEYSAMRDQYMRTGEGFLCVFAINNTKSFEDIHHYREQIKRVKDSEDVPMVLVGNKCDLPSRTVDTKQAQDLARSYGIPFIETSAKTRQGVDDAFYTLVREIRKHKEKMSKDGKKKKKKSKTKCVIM
T1 sequence (P01116 1-188 isoform P01116-2 G12D): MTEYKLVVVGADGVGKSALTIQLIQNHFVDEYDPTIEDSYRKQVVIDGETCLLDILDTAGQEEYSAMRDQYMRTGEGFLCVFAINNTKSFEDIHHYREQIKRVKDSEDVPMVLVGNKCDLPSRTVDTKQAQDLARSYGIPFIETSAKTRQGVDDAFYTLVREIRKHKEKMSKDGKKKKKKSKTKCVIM

Consider `C[C@@H]1[C@H](N(C)c2nc(OC[C@@]34CCCN3C[C@H](F)C4)nc3c(F)c(-c4ccc(F)c5sc(N)c(C#N)c45)c(Cl)cc23)CCN1C(=O)n1ccnc1C#N` [Compound 176, 1-((2R,3R)-3-((7-(2-amino-3-cyano-7-fluorobenzo[b]thiophen-4-yl)-6-chloro-8-fluoro-2-(((2R,7aS)-2-fluorotetrahydro-1H-pyrrolizin-7a(5H)-yl)methoxy)quinazolin-4-yl)(methyl)amino)-2-methylpyrrolidine-1-carbonyl)-1H-imidazole-2-carbonitrile], for which the IC50 in assay [1] is less than 500 nM; in assay [2], less than 500 nM; in assay [3], no more than 500 nM; in assay [4] it was less than 500 nM; in assay [5], less than 500 nM.

Take `CCN(c1nc(OC[C@@]23CCCN2C[C@H](F)C3)nc2c(F)c(-c3ccc(F)c4sc(N)c(C#N)c34)ncc12)[C@@H]1CCN(C(=O)n2cnc(Cl)n2)[C@@H]1C` [Compound 177, 2-amino-4-(4-(((2R,3R)-1-(3-chloro-1H-1,2,4-triazole-1-carbonyl)-2-methylpyrrolidin-3-yl)(ethyl)amino)-8-fluoro-2-(((2R,7aS)-2-fluorotetrahydro-1H-pyrrolizin-7a(5H)-yl)methoxy)pyrido[4,3-d]pyrimidin-7-yl)-7-fluorobenzo[b]thiophene-3-carbonitrile]: the IC50 was less than 500 nM in assay [1]; less than 500 nM in assay [2]; no more than 500 nM in assay [3]; less than 500 nM in assay [4]; less than 500 nM in assay [5].

Consider `C[C@@H]1[C@H](N(C)c2nc(OC[C@@]34CCCN3C[C@H](F)C4)nc3c(F)c(-c4ccc(F)c5sc(N)c(C#N)c45)c(Cl)cc23)CCN1C(=O)n1ccnc1Cl` [Compound 178, 2-amino-4-(6-chloro-4-(((2R,3R)-1-(2-chloro-1H-imidazole-1-carbonyl)-2-methylpyrrolidin-3-yl)(methyl)amino)-8-fluoro-2-(((2R,7aS)-2-fluorotetrahydro-1H-pyrrolizin-7a(5H)-yl)methoxy)quinazolin-7-yl)-7-fluorobenzo[b]thiophene-3-carbonitrile], for which the IC50 in assay [1] is less than 500 nM; in assay [2], less than 500 nM; in assay [3], no more than 500 nM; in assay [4] it was less than 500 nM; in assay [5] it was less than 500 nM.

In the case of `CN(c1nc(OC[C@@]23CCCN2C[C@H](F)C3)nc2c(F)c(-c3ccc(F)c4sc(N)c(C#N)c34)c(Cl)cc12)[C@H]1CCN(C(=O)n2cncn2)C1` [Compound 179, 4-(4-(((S)-1-(1H-1,2,4-triazole-1-carbonyl)pyrrolidin-3-yl)(methyl)amino)-6-chloro-8-fluoro-2-(((2R,7aS)-2-fluorotetrahydro-1H-pyrrolizin-7a(5H)-yl)methoxy)quinazolin-7-yl)-2-amino-7-fluorobenzo[b]thiophene-3-carbonitrile], the IC50 in assay [1] was less than 500 nM; in assay [2], less than 500 nM; in assay [3] it was no more than 500 nM; in assay [4], less than 500 nM; in assay [5], less than 500 nM.

Turning to `Cc1ncn(C(=O)N2CC[C@@H](N(C)c3nc(OC[C@@]45CCCN4C[C@H](F)C5)nc4c(F)c(-c5ccc(F)c6sc(N)c(C#N)c56)c(Cl)cc34)[C@H]2C)c1C` [Compound 180, 2-amino-4-(6-chloro-4-(((2R,3R)-1-(4,5-dimethyl-1H-imidazole-1-carbonyl)-2-methylpyrrolidin-3-yl)(methyl)amino)-8-fluoro-2-(((2R,7aS)-2-fluorotetrahydro-1H-pyrrolizin-7a(5H)-yl)methoxy)quinazolin-7-yl)-7-fluorobenzo[b]thiophene-3-carbonitrile], the IC50 in assay [1] is less than 500 nM; in assay [2], less than 500 nM; in assay [3] it was no more than 500 nM; in assay [4], less than 500 nM; in assay [5], less than 500 nM.

As for `CN(c1nc(OC[C@@]23CCCN2C[C@H](F)C3)nc2c(F)c(-c3ccc(F)c4sc(N)c(C#N)c34)c(Cl)cc12)[C@@H]1CCN(C(=O)n2cncn2)C1` [Compound 181, 4-(4-(((R)-1-(1H-1,2,4-triazole-1-carbonyl)pyrrolidin-3-yl)(methyl)amino)-6-chloro-8-fluoro-2-(((2R,7aS)-2-fluorotetrahydro-1H-pyrrolizin-7a(5H)-yl)methoxy)quinazolin-7-yl)-2-amino-7-fluorobenzo[b]thiophene-3-carbonitrile], the IC50 in assay [1] was less than 500 nM; in assay [2] it was less than 500 nM; in assay [3], no more than 500 nM; in assay [4], less than 500 nM; in assay [5], less than 500 nM.

With `CCN(c1nc(OC[C@@]23CCCN2[C@H](COc2ccc(C(F)(F)F)nn2)CC3)nc2c(F)c(-c3ccc(F)c4sc(N)c(C#N)c34)c(Cl)cc12)[C@@H]1CCN(C(=O)n2cc(C)nc2C)[C@@H]1C` [Compound 182, 2-amino-4-(6-chloro-4-(((2R,3R)-1-(2,4-dimethyl-1H-imidazole-1-carbonyl)-2-methylpyrrolidin-3-yl)(ethyl)amino)-8-fluoro-2-(((3S,7aS)-3-(((6-(trifluoromethyl)pyridazin-3-yl)oxy)methyl)tetrahydro-1H-pyrrolizin-7a(5H)-yl)methoxy)quinazolin-7-yl)-7-fluorobenzo[b]thiophene-3-carbonitrile], the concentration for half-maximal inhibition (IC50) in assay [1] was less than 500 nM; in assay [2] it was less than 500 nM; in assay [3], no more than 500 nM; in assay [4] it was less than 500 nM; in assay [5] it was less than 500 nM.

On to `C[C@@H]1[C@H](N(C)c2nc(OC[C@@]34CCCN3C[C@H](F)C4)nc3c(F)c(-c4ccc(F)c5sc(N)c(C#N)c45)c(Cl)cc23)CCN1C(=O)n1cnc(CC#N)c1` [Compound 183, 2-amino-4-(6-chloro-4-(((2R,3R)-1-(4-(cyanomethyl)-1H-imidazole-1-carbonyl)-2-methylpyrrolidin-3-yl)(methyl)amino)-8-fluoro-2-(((2R,7aS)-2-fluorotetrahydro-1H-pyrrolizin-7a(5H)-yl)methoxy)quinazolin-7-yl)-7-fluorobenzo[b]thiophene-3-carbonitrile], for which the IC50 is less than 500 nM in assay [1]; less than 500 nM in assay [2]; no more than 500 nM in assay [3]; less than 500 nM in assay [4]; less than 500 nM in assay [5].

`CCN(c1nc(OC[C@@]23CCCN2C[C@H](F)C3)nc2c(F)c(-c3ccc(F)c4sc(N)c(C#N)c34)c(I)cc12)[C@@H]1CCN(C(=O)n2cc(C)nc2C)[C@@H]1C` [Compound 184, 2-amino-4-(4-(((2R,3R)-1-(2,4-dimethyl-1H-imidazole-1-carbonyl)-2-methylpyrrolidin-3-yl)(ethyl)amino)-8-fluoro-2-(((2R,7aS)-2-fluorotetrahydro-1H-pyrrolizin-7a(5H)-yl)methoxy)-6-iodoquinazolin-7-yl)-7-fluorobenzo[b]thiophene-3-carbonitrile]: the IC50 in assay [1] was less than 500 nM; in assay [2], less than 500 nM; in assay [3] it was no more than 500 nM; in assay [4], less than 500 nM; in assay [5], less than 500 nM.

Take `Cc1c(F)c(N)cc(-c2ncc3c(N(C)[C@@H]4CCN(C(=O)n5cnc(F)n5)[C@@H]4C)nc(OC[C@@]45CCCN4C[C@H](F)C5)nc3c2F)c1C(F)(F)F` [Compound 185, ((2R,3R)-3-((7-(5-amino-4-fluoro-3-methyl-2-(trifluoromethyl)phenyl)-8-fluoro-2-(((2R,7aS)-2-fluorotetrahydro-1H-pyrrolizin-7a(5H)-yl)methoxy)pyrido[4,3-d]pyrimidin-4-yl)(methyl)amino)-2-methylpyrrolidin-1-yl)(3-fluoro-1H-1,2,4-triazol-1-yl)methanone]: the IC50 in assay [1] was less than 500 nM; in assay [2], less than 500 nM; in assay [3], no more than 500 nM; in assay [4], less than 500 nM; in assay [5], less than 500 nM.

With `CCN(c1nc(OC[C@@]23CCCN2C[C@H](F)C3)nc2c(F)c(-c3ccc(F)c4sc(N)c(C#N)c34)c(Cl)cc12)[C@@H]1CCN(C(=O)n2ccnc2Cl)[C@@H]1C` [Compound 186, 2-amino-4-(6-chloro-4-(((2R,3R)-1-(2-chloro-1H-imidazole-1-carbonyl)-2-methylpyrrolidin-3-yl)(ethyl)amino)-8-fluoro-2-(((2R,7aS)-2-fluorotetrahydro-1H-pyrrolizin-7a(5H)-yl)methoxy)quinazolin-7-yl)-7-fluorobenzo[b]thiophene-3-carbonitrile], the IC50 in assay [1] was less than 500 nM; in assay [2], less than 500 nM; in assay [3], no more than 500 nM; in assay [4], less than 500 nM; in assay [5], less than 500 nM.

As for `CC1C(N(C)c2nc(OC[C@@]34CCCN3C[C@H](F)C4)nc3c(F)c(-c4ccc(F)c5sc(N)c(C#N)c45)c(Cl)cc23)CCCN1C(=O)n1ccnc1` (stereo partly drawn) [Compound 187, 4-(4-((1-(1H-imidazole-1-carbonyl)-2-methylpiperidin-3-yl)(methyl)amino)-6-chloro-8-fluoro-2-(((2R,7aS)-2-fluorotetrahydro-1H-pyrrolizin-7a(5H)-yl)methoxy)quinazolin-7-yl)-2-amino-7-fluorobenzo[b]thiophene-3-carbonitrile], the half-inhibitory concentration (IC50) was less than 500 nM in assay [1]; less than 500 nM in assay [2]; no more than 500 nM in assay [3]; less than 500 nM in assay [4]; less than 500 nM in assay [5].
